Measured values from PMC7210949, “Flexibility of intrinsically disordered degrons in AUX/IAA proteins reinforces auxin co-receptor assemblies” (Nature Communications, 2020).

Columns and labels:
Assay in all cases: [3H]IAA saturation radioligand binding
ASK1·TIR1·IAA12 = target: T1, ASK1·TIR1·IAA12 (Arabidopsis thaliana, UniProt Q38830+Q570C0)
T1 construct: full-length IAA12 as GST fusion from E. coli, GST kept; with SKP1-like protein 1A
T1 sequence (Q570C0 1-594): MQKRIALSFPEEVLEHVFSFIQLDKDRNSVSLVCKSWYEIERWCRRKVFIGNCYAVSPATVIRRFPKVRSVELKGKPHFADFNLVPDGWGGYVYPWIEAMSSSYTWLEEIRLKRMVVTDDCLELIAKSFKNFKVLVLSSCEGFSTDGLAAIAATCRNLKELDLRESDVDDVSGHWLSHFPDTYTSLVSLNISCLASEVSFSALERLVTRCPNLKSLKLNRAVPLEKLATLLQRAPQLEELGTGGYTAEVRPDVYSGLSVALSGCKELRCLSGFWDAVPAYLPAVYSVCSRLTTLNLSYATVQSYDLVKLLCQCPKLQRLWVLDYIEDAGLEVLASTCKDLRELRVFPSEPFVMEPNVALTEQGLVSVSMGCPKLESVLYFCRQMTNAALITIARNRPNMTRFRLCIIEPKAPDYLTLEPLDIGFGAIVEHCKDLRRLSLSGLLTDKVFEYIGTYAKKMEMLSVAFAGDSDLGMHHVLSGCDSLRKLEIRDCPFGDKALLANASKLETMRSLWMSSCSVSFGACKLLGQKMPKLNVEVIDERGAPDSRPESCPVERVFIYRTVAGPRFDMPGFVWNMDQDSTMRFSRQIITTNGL
T1 sequence (Q38830 1-239): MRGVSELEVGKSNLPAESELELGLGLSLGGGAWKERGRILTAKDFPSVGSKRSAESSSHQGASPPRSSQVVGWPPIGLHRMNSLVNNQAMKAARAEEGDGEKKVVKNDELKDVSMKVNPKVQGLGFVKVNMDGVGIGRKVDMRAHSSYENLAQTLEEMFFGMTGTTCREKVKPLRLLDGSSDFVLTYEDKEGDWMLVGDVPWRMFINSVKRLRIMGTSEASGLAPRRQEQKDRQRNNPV
T1 sequence (Q39255 1-160 partner): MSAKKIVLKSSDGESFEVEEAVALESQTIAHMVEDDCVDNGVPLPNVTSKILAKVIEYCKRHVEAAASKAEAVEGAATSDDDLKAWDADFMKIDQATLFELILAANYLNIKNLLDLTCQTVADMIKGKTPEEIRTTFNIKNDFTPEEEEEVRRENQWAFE

TIR1·IAA (12-12-12-12-7) = target: T2, TIR1·IAA (12-12-12-12-7); design: species or system Arabidopsis thaliana; settings: labelled compound; 0.01 µM ASK1·TIR1, 0.3 µM GST-AUX/IAA chimera, on ice 1 h; one-site fit; n = 3
T2 construct: IAA12 with its PB1 domain replaced by that of IAA7 (one seamless polypeptide: DI, linker, core degron, degron tail from IAA12); GST fusion from E. coli; with SKP1-like protein 1A

TIR1·IAA (7-7-7-12-7) = target: T3, TIR1·IAA (7-7-7-12-7); design: species or system Arabidopsis thaliana; settings: labelled compound; 0.01 µM ASK1·TIR1, 0.3 µM GST-AUX/IAA chimera, on ice 1 h; one-site fit; n = 2
T3 construct: IAA7 with its degron tail replaced by that of IAA12 (one seamless polypeptide: DI, linker, core degron, PB1 from IAA7); GST fusion from E. coli; with SKP1-like protein 1A

ASK1·TIR1·IAA7 = target: T4, ASK1·TIR1·IAA7 (Arabidopsis thaliana, UniProt Q38825+Q570C0)
T4 construct: full-length IAA7 as GST fusion from E. coli, GST kept; with SKP1-like protein 1A
T4 sequence (Q570C0 1-594): T1 sequence (Q570C0 1-594)
T4 sequence (Q38825 1-243): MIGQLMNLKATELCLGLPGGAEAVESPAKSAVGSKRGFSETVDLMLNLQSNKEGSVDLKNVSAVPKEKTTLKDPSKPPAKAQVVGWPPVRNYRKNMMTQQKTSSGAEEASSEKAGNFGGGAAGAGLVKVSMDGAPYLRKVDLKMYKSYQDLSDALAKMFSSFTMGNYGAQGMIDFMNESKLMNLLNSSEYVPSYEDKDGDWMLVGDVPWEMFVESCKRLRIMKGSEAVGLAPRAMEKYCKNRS
T4 sequence (Q39255 1-160 partner): T1 sequence (Q39255 1-160 partner)

TIR1·IAA (7-7-7-7-12) = target: T5, TIR1·IAA (7-7-7-7-12); design: species or system Arabidopsis thaliana; settings: labelled compound; 0.01 µM ASK1·TIR1, 0.3 µM GST-AUX/IAA chimera, on ice 1 h; one-site fit; n = 2
T5 construct: IAA7 with its PB1 domain replaced by that of IAA12 (one seamless polypeptide: DI, linker, core degron, degron tail from IAA7); GST fusion from E. coli; with SKP1-like protein 1A

TIR1·IAA (12-12-12-7-12) = target: T6, TIR1·IAA (12-12-12-7-12); design: species or system Arabidopsis thaliana; settings: labelled compound; 0.01 µM ASK1·TIR1, 0.3 µM GST-AUX/IAA chimera, on ice 1 h; one-site fit; n = 3
T6 construct: IAA12 with its degron tail replaced by that of IAA7 (one seamless polypeptide: DI, linker, core degron, PB1 from IAA12); GST fusion from E. coli; with SKP1-like protein 1A

For `O=C(O)Cc1c[nH]c2ccccc12` [[3H]IAA], the Kd (ASK1·TIR1·IAA12) was ~226 nM, the Kd (TIR1·IAA (12-12-12-12-7)) was ~133 nM and the Kd (TIR1·IAA (7-7-7-12-7)) was ~57 nM. For the same molecule, the Kd (ASK1·TIR1·IAA7) was ~20 nM, the Kd (TIR1·IAA (7-7-7-7-12)) was ~43 nM and the Kd (TIR1·IAA (12-12-12-7-12)) was ~79 nM.
